Numbers after ± are expanded uncertainties.
Assay: molar heat capacity at constant pressure
Details: 101.33 kPa, Liquid

Compound | molar heat capacity at constant pressure (284.15 K) | molar heat capacity at constant pressure (286.65 K) | molar heat capacity at constant pressure (289.15 K) | molar heat capacity at constant pressure (291.65 K) | molar heat capacity at constant pressure (294.15 K) | molar heat capacity at constant pressure (296.65 K) | molar heat capacity at constant pressure (299.15 K) | molar heat capacity at constant pressure (301.65 K) | molar heat capacity at constant pressure (304.15 K) | molar heat capacity at constant pressure (306.65 K) | molar heat capacity at constant pressure (309.15 K) | molar heat capacity at constant pressure (311.65 K) | molar heat capacity at constant pressure (314.15 K) | molar heat capacity at constant pressure (316.65 K) | molar heat capacity at constant pressure (319.15 K) | molar heat capacity at constant pressure (321.65 K) | molar heat capacity at constant pressure (324.15 K) | molar heat capacity at constant pressure (326.65 K) | molar heat capacity at constant pressure (329.15 K) | molar heat capacity at constant pressure (331.65 K) | also measured
CCCBr [1-bromopropane] | 131.2 ± 0.66 J/K/mol | 131.64 ± 0.66 J/K/mol | 132.01 ± 0.66 J/K/mol | 132.46 ± 0.66 J/K/mol | 132.78 ± 0.66 J/K/mol | 133.2 ± 0.67 J/K/mol | 133.64 ± 0.67 J/K/mol | 134 ± 0.67 J/K/mol | 134.55 ± 0.67 J/K/mol | 134.93 ± 0.67 J/K/mol | 135.35 ± 0.68 J/K/mol | 135.8 ± 0.68 J/K/mol | 136.23 ± 0.68 J/K/mol | 136.68 ± 0.68 J/K/mol | 137.16 ± 0.69 J/K/mol | 137.6 ± 0.69 J/K/mol | 138.11 ± 0.69 J/K/mol | 138.55 ± 0.69 J/K/mol | – | – | molar heat capacity at constant pressure (269.15 K): 129.02 ± 0.65 J/K/mol; molar heat capacity at constant pressure (271.65 K): 129.44 ± 0.65 J/K/mol; molar heat capacity at constant pressure (274.15 K): 129.78 ± 0.65 J/K/mol; molar heat capacity at constant pressure (276.65 K): 130.1 ± 0.65 J/K/mol; molar heat capacity at constant pressure (279.15 K): 130.48 ± 0.65 J/K/mol; molar heat capacity at constant pressure (281.65 K): 130.86 ± 0.65 J/K/mol
CCCCCCCl [1-chlorohexane] | 212.36 ± 1.1 J/K/mol | 213.23 ± 1.1 J/K/mol | 213.91 ± 1.1 J/K/mol | 214.63 ± 1.1 J/K/mol | 215.4 ± 1.1 J/K/mol | 216.12 ± 1.1 J/K/mol | 216.95 ± 1.1 J/K/mol | 217.75 ± 1.1 J/K/mol | 218.44 ± 1.1 J/K/mol | 219.22 ± 1.1 J/K/mol | 219.99 ± 1.1 J/K/mol | 221 ± 1.1 J/K/mol | 221.78 ± 1.1 J/K/mol | 222.49 ± 1.1 J/K/mol | 223.43 ± 1.1 J/K/mol | 224.31 ± 1.1 J/K/mol | 224.7 ± 1.1 J/K/mol | 226.02 ± 1.1 J/K/mol | 227.13 ± 1.1 J/K/mol | 228.86 ± 1.1 J/K/mol | molar heat capacity at constant pressure (334.15 K): 228.99 ± 1.1 J/K/mol; molar heat capacity at constant pressure (336.65 K): 229.44 ± 1.1 J/K/mol; molar heat capacity at constant pressure (339.15 K): 230.06 ± 1.1 J/K/mol; molar heat capacity at constant pressure (341.65 K): 231.22 ± 1.2 J/K/mol; molar heat capacity at constant pressure (344.15 K): 231.83 ± 1.2 J/K/mol; molar heat capacity at constant pressure (346.65 K): 232.32 ± 1.2 J/K/mol; molar heat capacity at constant pressure (349.15 K): 233.18 ± 1.2 J/K/mol; molar heat capacity at constant pressure (351.65 K): 234.56 ± 1.2 J/K/mol; molar heat capacity at constant pressure (353.15 K): 235.17 ± 1.2 J/K/mol
CCCCCCCCCCBr [1-bromodecane] | 332.6 ± 1.7 J/K/mol | 333.65 ± 1.7 J/K/mol | 335 ± 1.7 J/K/mol | 336.08 ± 1.7 J/K/mol | 336.9 ± 1.7 J/K/mol | 338.2 ± 1.7 J/K/mol | 339.29 ± 1.7 J/K/mol | 340.37 ± 1.7 J/K/mol | 341.48 ± 1.7 J/K/mol | 342.74 ± 1.7 J/K/mol | 343.89 ± 1.7 J/K/mol | 345.13 ± 1.7 J/K/mol | 346.34 ± 1.7 J/K/mol | 347.51 ± 1.7 J/K/mol | 348.84 ± 1.7 J/K/mol | 350.1 ± 1.8 J/K/mol | 351.41 ± 1.8 J/K/mol | 352.71 ± 1.8 J/K/mol | 354.02 ± 1.8 J/K/mol | 355.32 ± 1.8 J/K/mol | molar heat capacity at constant pressure (334.15 K): 356.14 ± 1.8 J/K/mol; molar heat capacity at constant pressure (336.65 K): 357.34 ± 1.8 J/K/mol; molar heat capacity at constant pressure (339.15 K): 359.3 ± 1.8 J/K/mol; molar heat capacity at constant pressure (341.65 K): 360.7 ± 1.8 J/K/mol; molar heat capacity at constant pressure (344.15 K): 362.13 ± 1.8 J/K/mol; molar heat capacity at constant pressure (346.65 K): 363.37 ± 1.8 J/K/mol; molar heat capacity at constant pressure (349.15 K): 364.86 ± 1.8 J/K/mol; molar heat capacity at constant pressure (351.65 K): 366.38 ± 1.8 J/K/mol; molar heat capacity at constant pressure (353.15 K): 367.07 ± 1.8 J/K/mol

Reference: the NIST ThermoML archive (doi:10.1021/je049652j)
